{"source": "ChEMBL document CHEMBL4342436", "about": "“Artemisia: a promising plant for the treatment of cancer” (Bioorg Med Chem, 2020)", "key": {"[1]": {"system": "HL-60", "assay": "Cytotoxicity against human HL60 cells", "format": "functional, cell-based"}, "[2]": {"system": "K562", "assay": "Cytotoxicity against human K562 cells", "format": "functional, cell-based"}, "[3]": {"assay": "Cytotoxicity against human 95-D cells by SRB assay", "format": "functional, cell-based"}, "[4]": {"system": "K562", "assay": "Antiproliferative activity against human K562 cells assessed as cell viability at 75 uM after 48 hrs relative to control", "format": "functional", "details": "K562, 48 h, read-out: Activity"}, "[5]": {"system": "K562", "assay": "Cytotoxicity against human K562 cells assessed as cell viability at 75 uM after by MTT assay relative to control", "format": "functional", "details": "read-out: Activity"}, "[6]": {"assay": "Cytotoxicity against mouse Meth-A cells by MTT assay", "format": "functional", "details": "read-out: ED50 (the source's name)"}, "[7]": {"system": "BGC-823", "assay": "Cytotoxicity against human BGC823 cells after 72 hrs by MTT assay", "format": "functional, cell-based", "details": "BGC-823, 72 h"}, "[8]": {"system": "A549", "assay": "Cytotoxicity against human A549 cells after 72 hrs by MTT assay", "format": "functional, cell-based", "details": "A549, 72 h"}, "[9]": {"system": "HCT-8", "assay": "Cytotoxicity against human HCT8 cells after 72 hrs by MTT assay", "format": "functional, cell-based", "details": "HCT-8, 72 h"}, "[10]": {"system": "SW-620", "assay": "Antitumour activity against human SW620 cells xenografted in nude mouse assessed as inhibition of tumour growth at 50 mg/kg, ip for 17 days relative to control", "format": "functional", "details": "SW-620, ip, 408 h, read-out: TGI"}, "[11]": {"system": "NCI-H23", "assay": "Antitumour activity against human NCI-H23 cells xenografted in nude mouse assessed as inhibition of tumour growth at 50 mg/kg, ip for 17 days relative to control", "format": "functional", "details": "408 h, read-out: TGI"}, "[12]": {"system": "SMMC-7721", "assay": "Cytotoxicity against human SMMC7721 cells by MTT assay", "format": "functional, cell-based"}, "[13]": {"system": "SGC-7901", "assay": "Cytotoxicity against human SGC7901 cells by MTT assay", "format": "functional, cell-based"}, "[14]": {"system": "BGC-823", "assay": "Cytotoxicity against human BGC823 cells", "format": "functional, cell-based"}, "[15]": {"system": "HCT-8", "assay": "Cytotoxicity against human HCT8 cells", "format": "functional, cell-based"}, "[16]": {"system": "A549", "assay": "Cytotoxicity against human A549 cells", "format": "functional, cell-based"}, "[17]": {"system": "HepG2", "assay": "Cytotoxicity against human HepG2 cells assessed as reduction in cell viability by CCK8 assay", "format": "functional, cell-based"}, "[18]": {"system": "A549", "assay": "Cytotoxicity against human A549 cells assessed as reduction in cell viability by CCK8 assay", "format": "functional, cell-based"}, "[19]": {"system": "IGROV-1", "assay": "Growth inhibition of human IGROV1 cells assessed as reduction in cell viability at 15 uM by MTT assay relative to control", "format": "functional", "details": "read-out: GI"}, "[20]": {"system": "OVCAR-3", "assay": "Growth inhibition of human OVCAR3 cells assessed as reduction in cell viability at 15 uM by MTT assay relative to control", "format": "functional", "details": "read-out: GI"}, "[21]": {"system": "HCT-116", "assay": "Growth inhibition of human HCT116 cells assessed as reduction in cell viability at 15 uM by MTT assay relative to control", "format": "functional", "details": "read-out: GI"}}, "data": [{"smiles": "C=C1CCC(O)C2(C)CCC3C(C)C(=O)OC3C12O", "note": "(stereo unspecified)", "values": [{"measurement": "IC50", "setting": "[1]", "result": 71.1, "unit": "µM"}, {"measurement": "IC50", "setting": "[2]", "result": 22.5, "unit": "µM"}, {"measurement": "IC50", "setting": "[3]", "result": 11.3, "unit": "µM"}]}, {"smiles": "C[C@@H]1C(=O)O[C@H]2C1CC[C@@]1(C)[C@H](O)CC[C@@]13C[C@]2(O)OO3", "note": "(stereo partly specified)", "values": [{"measurement": "viability at 75 µM", "setting": "[4]", "result": 40, "unit": "%"}, {"measurement": "viability at 75 µM", "setting": "[5]", "result": 40, "unit": "%"}]}, {"smiles": "CC(C)C(=O)CC[C@@H](C)[C@H]1CC[C@@]2(C)[C@@H]3CC[C@H]4C(C)(C)[C@@H](O)CC[C@@]45C[C@@]35CC[C@]12C", "values": [{"measurement": "EC50", "setting": "[6]", "result": "4 to 10", "unit": "µg/mL"}]}, {"smiles": "CC#CC#CC1=C(CCCCO)C(O)C(O)C1=O", "note": "(stereo unspecified)", "values": [{"measurement": "IC50", "setting": "[7]", "result": 1.1, "unit": "µM"}, {"measurement": "IC50", "setting": "[8]", "result": 7.5, "unit": "µM"}, {"measurement": "IC50", "setting": "[9]", "result": 4.6, "unit": "µM"}]}, {"smiles": "C=C1C(=O)O[C@@H]2[C@@H]3[C@@]4(C=C[C@@]3(C)[C@@]3(C4)C(=O)O[C@@H]4[C@H]5C(C)=CC(=O)C5=C(C)C[C@H](OC(=O)/C(C)=C\\C)[C@H]43)[C@](C)(O)CC[C@@H]12", "values": [{"measurement": "inhibition in vivo at 50 mg/kg", "setting": "[10]", "result": 39.5, "unit": "%"}, {"measurement": "inhibition in vivo at 50 mg/kg", "setting": "[11]", "result": 30.3, "unit": "%"}]}, {"smiles": "CC1=CC2O[C@@H]3C[C@H]4OC(=O)/C=C\\CC[C@]56OCCC7(OC7C(=O)OC[C@@]2(CC1)[C@]4(C)[C@]31CO1)[C@H]5OC(=O)[C@H]6O", "note": "(stereo partly specified)", "values": [{"measurement": "IC50", "setting": "[12]", "result": 10.54, "unit": "µg/mL"}, {"measurement": "IC50", "setting": "[13]", "result": 0.26, "unit": "µg/mL"}]}, {"smiles": "CC(=O)OCC1=C2CC[C@@]3(C)[C@H](O)CC(OC(C)=O)=C(C)[C@@H]3[C@H]2OC1=O", "values": [{"measurement": "IC50", "setting": "[14]", "result": 2.71, "unit": "µM"}, {"measurement": "IC50", "setting": "[15]", "result": 3.76, "unit": "µM"}, {"measurement": "IC50", "setting": "[16]", "result": 5.49, "unit": "µM"}]}, {"smiles": "C=C1C(=O)O[C@@H]2[C@@H]3C4(C=C[C@@]3(C)[C@]3(C4)C(=O)O[C@@H]4[C@H]5C(C)=CC(=O)C5=C(C)C[C@H](OC(C)=O)[C@H]43)[C@@](C)(OC(C)=O)CC[C@@H]12", "values": [{"measurement": "IC50", "setting": "[17]", "result": "0.6 to 5.4", "unit": "µM"}, {"measurement": "IC50", "setting": "[18]", "result": "0.6 to 5.4", "unit": "µM"}]}, {"smiles": "COc1cc2oc(-c3ccc(O)c(O)c3)cc(=O)c2c(O)c1OC", "note": "[CIRSILIOL]", "values": [{"measurement": "inhibition of growth at 15 µM", "setting": "[19]", "result": 48.8, "unit": "%"}, {"measurement": "inhibition of growth at 15 µM", "setting": "[20]", "result": 53.7, "unit": "%"}, {"measurement": "inhibition of growth at 15 µM", "setting": "[21]", "result": 40.9, "unit": "%"}]}]}
